Measured values: patent US11484608B2, “Non-invasive assessment of hepatic mitochondrial metabolism by positional isotopomer NMR tracer analysis (PINTA)” (YALE UNIVERSITY, priority 2017, dated 2022)

Columns and labels:
[1] = tested on: hepatic glucose production, VPC and VCS (InsP3R-I signaling); assay: Acute 2 hr glucagon infusion in WT and liver-specific InsP3R-I KO mice; format: in vivo, mouse
Source text: All protocols were approved by the Yale University Animal Care and Use Committee. Liver-specific InsP3R-I KO mice were generated as described (Feriod, et al. Hepatology Communications 1, 23-35, 2017) and in all experiments, littermates were studied at 10-12 weeks of age. They were fed standard chow (Teklad #2018) and housed on a 12 hr light/dark cycle in the Yale Animal Resources Center. To knock down ATGL in a liver-specific manner, an adeno-associated virus targeting ATGL (Vector BioLabs, 10^12 gc per mouse) was administered by retro-orbital injection four weeks prior to studies. Male mice were used for in vivo studies, while female mice were used for in vitro studies, unless otherwise specified. One week prior to in vivo studies, mice underwent surgery under isoflurane anesthesia to place a catheter in the jugular vein. Post-surgical recovery was confirmed by regaining the pre-surgical body weight prior to any in vivo studies. They were fasted overnight, unless otherwise stated, prior to in vivo studies. […] Mice were euthanized using IV pentobarbital at the conclusion of the terminal study.
In the rat studies, blood was collected from the jugular venous catheter. In both species, samples were immediately centrifuged (12,000 rpm) to separate plasma from red blood cells. PINTA analysis of hepatic mitochondrial fluxes was employed in both rats and mice (see Example 1). Briefly, mice were infused with a two-hour primed (5 min, 3×)-continuous infusion of [3-^13C] lactate (40 μmol kg^−1 min^−1) and [1,2,3,4,5,6,6-^2H7] glucose (0.1 mg kg^−1 min^−1). Rats were infused with lactate at the same rate, as well as [3-^3H] glucose (0.1 mCi kg^−1 min^−1). At the conclusion of the study, animals were euthanized with IV pentobarbital.
Total glucose turnover (i.e. hepatic glucose production) was measured by determining the specific activity of [^3H] glucose in plasma using a scintillation counter, and the VPC/VHGP ratio was calculated using the equation
[formula] and calculated absolute VCS by dividing VPC by VPC/VCS. The derivations of each equation are described in detail in Example 1. The possible contribution of [^13C] bicarbonate to label the TCA cycle was corrected for as follows. Liver [^13C] bicarbonate enrichment was measured by GC-MS (HP-1 column: 12 m×0.2 mm×0.33 μm film, isothermal: 110° C.). Liver tissue (˜[…]) was placed in a GC-MS vial, purged with N2 gas, and sealed. To each sample, a saturated aqueous solution of citric acid (50 μl) was injected into the vial through the cap. After ten minutes, CO2 was sampled from the head-space and ions with m/z 44 and 45 daltons were monitored using electron impact ionization.
Plasma glucose concentrations were measured using a YSI Glucose Analyzer. […] Plasma NEFA concentrations were measured using the Wako NEFA assay, while plasma glycerol and plasma and liver amino acid concentrations were measured by GC/MS. […] Protein concentrations were measured by Western blot, using antibodies from Santa Cruz (PC, PEPCK, CAMKII), Cell Signaling (ATGL, pCAMKIV, CAMKIV, pCRTC2, CRTC2, pACC, ACC, pAMPK, AMPK, pHSL, HSL, GAPDH, and β-actin), Novus Biologicals (pCAMKII), Abcam (pATGL), LSBio (pInsP3R-I), and BD Transduction Laboratories (InsP3R-II, InsP3R-III, PKCε).

[2] = tested on: primary mouse hepatocytes; assay: Oxygen consumption in isolated hepatocytes (Seahorse); format: cell-based
Method: To assess oxygen consumption, primary mouse hepatocytes were isolated as described above and plated on collagen-I coated XF24 V7 cell culture plates (1.2×10^4 cells per well) in 2 mL recovery media as previously described (Camporez, J. P. et al. Endocrinology 154, 3099-3109). Following incubation for 6 hr at 37° C. and 5% CO2, the cells were washed twice with 1 ml Low Glucose Culture Media and incubated overnight in 250 μl low glucose culture media at 37° C. and 5% CO2. The following morning, cells were washed with XF24 assay media (DMEM Base containing 1.0 mM pyruvate, 2 mM glutamine and 5.5 mM glucose, pH 7.4). 500 μL of XF24 Assay Media was added to each well and plates were equilibrated at 37° C. for 1 h. Four measurements of basal oxygen consumption rates (picomoles per minute) were recorded on a Seahorse Bioscience XF^e 24 Analyzer (Seahorse Biosciences) using an instrument protocol of 3-minute mix, 2-minute wait, and 3-minute measure. […] Ten measurements were taken following injection and the average of eight measurements were used for subsequent analyses. Oxygen consumption rates were normalized to total protein content and expressed as fold change compared to vehicle-treated cells. Experiments were repeated three times using 3-4 mice per genotype.

glucagon
hepatic CAMKII phosphorylation ([1]; InsP3R-I-dependent, CAMKIV not): stimulated
increases in rates of HGP ([1]; PINTA, acute glucagon infusion): ~25%
increase in InsP3R-I phosphorylation ([1]; WT livers): two-fold
increase in hepatic mitochondrial oxidation (VCS) ([1]; WT mice): five-fold
plasma non-esterified fatty acid (NEFA) concentrations ([1]; WT mice): reduced
increase in hepatic ATGL S406 phosphorylation ([1]; WT mice in vivo, not InsP3R-I KO): three-fold
plasma glucose and insulin concentrations ([1]; WT mice, acute glucagon infusion): modest increase
increase in hepatic pyruvate dehydrogenase flux (VPDH) ([1]; WT mice, not InsP3R-I KO): 7 fold
hepatic malonyl-CoA content ([1]; acute glucagon infusion): independently of any changes
increases in hepatic long-chain acyl-CoA and acetyl-CoA content ([1]; acute glucagon infusion): 35-60%
VPK as percentage of hepatic VPC flux ([1]; acute glucagon study): 15-35%
cAMP concentrations, protein kinase A activity, CRTC2 phosphorylation (liver) ([1]; both genotypes): increased
hormone-sensitive lipase (HSL) phosphorylation ([1]; both genotypes): increased
hepatic mitochondrial oxidation ([1]; liver-specific InsP3R-I knockout mice): failed to exhibit any increases
pyruvate kinase flux (VPK) ([1]; mice infused with glucagon): without any difference
stimulation of mitochondrial oxidation ([2]; InsP3R-I KO hepatocytes from male mice): blunted
stimulation of mitochondrial oxidation ([2]; WT hepatocytes from male mice): ~60%
oxygen consumption ([2]; isolated WT hepatocytes, 100 nM glucagon, not InsP3R-I KO): increase
